According to paper PMC9589189, “The human odorant receptor OR10A6 is tuned to the pheromone of the commensal fruit fly Drosophila melanogaster” (iScience, 2022):
Changes are numbered by the printed parent chain. Like-named read-outs stand apart in the source and are kept apart here.

Assays:
Assay in all cases: GloSensor cAMP luminescence, HEK-293
Assay type in all cases: cell-based
[1] = target: T1, OR10A6 (Homo sapiens, UniProt Q8NH74)
T1 construct: full coding region from human genomic DNA in pFN210A, N-terminal IL-6-HaloTag; HEK-293 with RTP1S, G-alpha-olf, G-gamma-13, GloSensor-22F
T1 sequence (Q8NH74 1-314): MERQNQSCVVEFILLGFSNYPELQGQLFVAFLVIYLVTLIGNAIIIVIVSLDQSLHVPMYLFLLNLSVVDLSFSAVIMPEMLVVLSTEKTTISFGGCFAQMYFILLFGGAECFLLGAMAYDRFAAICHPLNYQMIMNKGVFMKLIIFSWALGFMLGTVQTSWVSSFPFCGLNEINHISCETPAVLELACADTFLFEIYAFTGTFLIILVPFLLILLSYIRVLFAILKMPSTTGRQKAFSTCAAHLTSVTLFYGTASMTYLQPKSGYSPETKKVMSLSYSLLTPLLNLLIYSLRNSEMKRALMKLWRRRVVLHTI
From the text: (§1) GloSensor cAMP luminescence, HEK-293 on OR10A6

[2] = target: T2, OR10A6 (Homo sapiens, UniProt Q8NH74, A117V/L287P/V140G)
T2 construct: full coding region from human genomic DNA in pFN210A, N-terminal IL-6-HaloTag; HEK-293 with RTP1S, G-alpha-olf, G-gamma-13, GloSensor-22F
T2 sequence (Q8NH74 1-314 A117V/V140G/L287P): T1 sequence (Q8NH74 1-314) with A117V, V140G, L287P
From the text: as §1

[3] = target: T3, OR10A6 (Homo sapiens, UniProt Q8NH74, L287P)
T3 construct: full coding region from human genomic DNA in pFN210A, N-terminal IL-6-HaloTag; HEK-293 with RTP1S, G-alpha-olf, G-gamma-13, GloSensor-22F
T3 sequence (Q8NH74 1-314 L287P): T1 sequence (Q8NH74 1-314) with L287P
From the text: as §1

[4] = target: T4, OR2W1 (Homo sapiens, UniProt Q9Y3N9)
T4 construct: full coding region from human genomic DNA in pFN210A, N-terminal IL-6-HaloTag; HEK-293 with RTP1S, G-alpha-olf, G-gamma-13, GloSensor-22F
T4 sequence (Q9Y3N9 1-320): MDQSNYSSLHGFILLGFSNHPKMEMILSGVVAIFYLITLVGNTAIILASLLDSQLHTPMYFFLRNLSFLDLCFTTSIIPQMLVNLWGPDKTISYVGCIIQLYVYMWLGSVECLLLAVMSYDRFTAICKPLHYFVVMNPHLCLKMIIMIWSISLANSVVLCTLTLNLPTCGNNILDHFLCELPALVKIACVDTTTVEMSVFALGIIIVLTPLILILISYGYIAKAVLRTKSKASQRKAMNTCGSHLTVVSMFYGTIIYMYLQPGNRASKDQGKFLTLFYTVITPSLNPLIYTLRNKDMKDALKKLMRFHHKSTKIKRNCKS
From the text: (§2) GloSensor cAMP luminescence, HEK-293 on OR2W1

[5] = target: T5, OR2W1 (Homo sapiens, UniProt Q9Y3N9, D296N)
T5 construct: full coding region from human genomic DNA in pFN210A, N-terminal IL-6-HaloTag; HEK-293 with RTP1S, G-alpha-olf, G-gamma-13, GloSensor-22F
T5 sequence (Q9Y3N9 1-320 D296N): T4 sequence (Q9Y3N9 1-320) with D296N
From the text: as §2

[6] = target: T6, OR2W1 (Homo sapiens, UniProt Q9Y3N9, M81V)
T6 construct: full coding region from human genomic DNA in pFN210A, N-terminal IL-6-HaloTag; HEK-293 with RTP1S, G-alpha-olf, G-gamma-13, GloSensor-22F
T6 sequence (Q9Y3N9 1-320 M81V): T4 sequence (Q9Y3N9 1-320) with M81V
From the text: as §2

[7] = read-out: Z4-11Al EC50 [μmol/L] ^a

Row | EC50 [1] | EC50 [2] | EC50 ([3]; read-out: Z4-9Al) | EC50 ([4]; read-out: Z4-9Al) | EC50 ([5]; read-out: Z4-9Al) | EC50 ([6]; read-out: Z4-9Al) | EC50 [3, 7] | EC50 [4, 7] | EC50 [5, 7] | EC50 ([6]; read-out: EC50) | EC50 ([3]; read-out: Z6-11Al) | EC50 ([4]; read-out: Z6-11Al) | EC50 ([5]; read-out: Z6-11Al) | Compound
1 | > 1000 µM | > 1000 µM | 41.1 ± 14.2 µmol/L | 119 ± 23.1 µmol/L | 91.8 ± 46.2 µmol/L | 142 ± 92.4 µM | – | – | – | – | – | – | – | CCCC/C=C\CCC=O [Z4-9Al, (Z)-4-nonenal]
2 | > 1000 µM | > 1000 µM | – | – | – | – | 28.2 ± 12.6 µmol/L | 65.1 ± 35.8 µmol/L | 40.4 ± 12 µmol/L | > 1000 µM | – | – | – | CCCCCC/C=C\CCC=O [Z4-11Al, (Z)-4-undecenal]
3 | > 1000 µM | > 1000 µM | – | – | – | – | – | – | – | > 1000 µM | 34.8 ± 9.21 µmol/L | 104 ± 27 µmol/L | 138 ± 55 µmol/L | CCCC/C=C\CCCCC=O [Z6-11Al, (Z)-6-undecenal]
